The source made the active and inactive calls. The calls are words filed in the database; no cut-off is given here.
Tests used:
[1] = tested on: NCI-H1650; assay: Antiproliferative activity against human NCI-H1650 cells incubated for 48 hrs by MTT assay; format: functional, cell-based; settings: NCI-H1650, 48 h
[2] = tested on: Mus musculus; assay: Antitumour activity against mouse […] cells implanted in BALB/c mouse assessed as decrease in tumour volume at 80 mg/kg administered once every three days for 21 days post tumour implantation and measured at day 13 by caliper method; format: functional, organism-based
[3] = tested on: BGC-823; assay: Antiproliferative activity against human BGC823 cells incubated for 48 hrs by MTT assay; format: functional, cell-based; settings: BGC-823, 48 h
[4] = tested on: HCT-116; assay: Induction of apoptosis in human HCT116 cells assessed as late apoptotic cells at 4 uM incubated for 24 hrs in presence of pan-caspase inhibitor z-VAD-FMK by annexin-V-FITC/PI staining based FACS analysis (reference value: 6.04%); format: functional
[5] = tested on: HCT-116; assay: Growth inhibition of human HCT116 cells at 1 uM by CCK-8 assay; format: functional, cell-based; settings: TDE = time-dependent effect
[6] = tested on: HCT-116; assay: Induction of morphological changes in human HCT116 cells assessed as cell shrinkage at 4 to 10 uM incubated for 24 hrs by phase-contrast microscopic method; format: functional, cell-based
[7] = tested on: HCT-116; assay: Induction of apoptosis in human HCT116 cells deficient in ATG7 assessed as early apoptotic cells at 8 uM incubated for 24 hrs by annexin-V-FITC/PI staining based FACS analysis (reference value: 2.32%); format: functional
[8] = tested on: HCT-116; assay: Induction of apoptosis in human HCT116 cells assessed as late apoptotic cells at 4 uM incubated for 24 hrs by annexin-V-FITC/PI staining based FACS analysis (reference value: 1.55 to 1.56%); format: functional
[9] = tested on: HCT-116; assay: Induction of apoptosis in human HCT116 cells deficient in ATG7 assessed as viable cells at 8 uM incubated for 24 hrs by annexin-V-FITC/PI staining based FACS analysis (reference value: 85.27%); format: functional; settings: HCT-116, 24 h, read-out: Activity
[10] = Toxicity in BALB/c mouse xenografted with mouse […] cells at 80 mg/kg administrated once every three days for 21 days; format: organism-based; settings: in vivo, 504 h
[11] = tested on: HCT-116; assay: Antiproliferative activity against human HCT116 expressing p53 (-/-) at 1 to 16 uM assessed as decrease cell viability incubated for 24 hrs by CCK-8 assay; format: functional, cell-based
[12] = tested on: HCT-116; assay: Induction of apoptosis in human HCT116 cells assessed as viable cells at 4 uM incubated for 24 hrs in presence of pan-caspase inhibitor z-VAD-FMK by annexin-V-FITC/PI staining based FACS analysis (reference value: 85.28%); format: functional; settings: HCT-116, 24 h, read-out: Activity
[13] = tested on: HCT-116; assay: Induction of apoptosis in human HCT116 cells deficient in p53 assessed as increase in pro-caspase3 protein expression level at 4 to 8 uM incubated for 24 hrs by Western blot analysis; format: functional, cell-based
[14] = tested on: HCT-116; assay: Induction of autophagy in human HCT116 cells assessed as decrease in ATG5 protein expression level incubated for 24 hrs by Western blot analysis; format: functional, cell-based
[15] = tested on: HCT-116; assay: Growth inhibition of human HCT116 cells incubated for 24 hrs by CCK-8 assay; format: functional, cell-based
[16] = tested on: A2780; assay: Antiproliferative activity against human A2780 cells incubated for 48 hrs by MTT assay; format: functional, cell-based; settings: A2780, 48 h
[17] = tested on: HCT-116; assay: Induction of apoptosis in human HCT116 cells assessed as late apoptotic cells incubated for 24 hrs by annexin-V-FITC/PI staining based FACS analysis; format: functional, cell-based
[18] = tested on: RKO; assay: Growth inhibition of human RKO cells at 1 uM by CCK-8 assay; format: functional, cell-based; settings: TDE = time-dependent effect
[19] = tested on: HCT-116; assay: Induction of apoptosis in human HCT116 cells deficient in ATG7 assessed as late apoptotic cells at 8 uM incubated for 24 hrs by annexin-V-FITC/PI staining based FACS analysis (Rvb =6.56%); format: functional
[20] = tested on: HCT-116; assay: Induction of apoptosis in human HCT116 cells assessed as increase in cleaved PARP protein expression level at 4 to 8 uM incubated for 24 hrs in presence of pan-caspase inhibitor z-VAD-FMK by Western blot analysis; format: functional, cell-based
[21] = tested on: RKO; assay: Growth inhibition of human RKO cells incubated for 24 hrs by CCK-8 assay; format: functional, cell-based
[22] = tested on: HCT-116; assay: Induction of apoptosis in human HCT116 cells assessed as late apoptotic cells at 8 uM incubated for 24 hrs by annexin-V-FITC/PI staining based FACS analysis (reference value: 1.55 to 1.56%); format: functional
[23] = tested on: HCT-116; assay: Inhibition of colony formation in human HCT116 cells incubated for 24 hrs followed by compound washout and subsequent incubation for 10 to 14 days by crystal violet staining based assay; format: functional, cell-based
[24] = Antitumour activity against mouse […] cells implanted in BALB/c mouse assessed inhibition in tumour growth at 80 mg/kg administered once every three days for 21 days post tumour implantation relative to control; format: functional; settings: read-out: TGI
[25] = tested on: HCT-116; assay: Induction of autophagy in human HCT116 cells assessed as decrease in ATG7 protein expression level incubated for 24 hrs by Western blot analysis; format: functional, cell-based
[26] = tested on: HCT-116; assay: Induction of autophagy in human HCT116 cells deficient in ATG5 assessed as increase in LC3B-2 protein expression level at 4 to 8 uM by Western blot analysis; format: functional, cell-based
[27] = tested on: HCT-116; assay: Induction of apoptosis in human HCT116 cells deficient in ATG7 assessed as necrotic cells at 8 uM incubated for 24 hrs by annexin-V-FITC/PI staining based FACS analysis (reference value: 5.58%); format: functional
[28] = tested on: HCT-116; assay: Induction of apoptosis in human HCT116 cells assessed as necrotic cells at 8 uM incubated for 24 hrs in presence of pan-caspase inhibitor z-VAD-FMK by annexin-V-FITC/PI staining based FACS analysis (reference value: 0.6%); format: functional
[29] = tested on: HCT-116; assay: Induction of apoptosis in human HCT116 cells assessed as early apoptotic cells at 4 uM incubated for 24 hrs in presence of pan-caspase inhibitor z-VAD-FMK by annexin-V-FITC/PI staining based FACS analysis (reference value: 8.08%); format: functional
[30] = tested on: HCT-116; assay: Induction of apoptosis in human HCT116 cells assessed as viable cells at 4 uM incubated for 24 hrs by annexin-V-FITC/PI staining based FACS analysis (reference value: 94.35 to 94.43%); format: functional; settings: HCT-116, 24 h, read-out: Activity
[31] = tested on: HCT-116; assay: Induction of apoptosis in human HCT116 cells assessed as early apoptotic cells at 8 uM incubated for 24 hrs in presence of pan-caspase inhibitor z-VAD-FMK by annexin-V-FITC/PI staining based FACS analysis (reference value: 8.08%); format: functional
[32] = tested on: HCT-116; assay: Induction of apoptosis in human HCT116 cells assessed as late apoptotic cells at 8 uM incubated for 24 hrs in presence of pan-caspase inhibitor z-VAD-FMK by annexin-V-FITC/PI staining based FACS analysis (reference value: 6.04%); format: functional
[33] = tested on: HCT-116; assay: Antiproliferative activity against human HCT116 cells incubated for 48 hrs by MTT assay; format: functional, cell-based; settings: HCT-116, 48 h
[34] = tested on: HCT-116; assay: Antiproliferative activity against human HCT116 cells expressing ATG5(-/-) assessed as cell viability incubated for 24 hrs by CCK8 assay; format: functional, cell-based

## COc1cccc(Nc2ccnc3cc(OCCCc4ccccc4)ccc23)c1
[1]
  IC50: 6.3 µM
[2]
  Activity: Active
[3]
  IC50: 9.08 µM
[4]
  Activity: 8.17%
[5]
  growth inhibition (GI): Tde
[6]
  Activity: Active
[7]
  Activity: 5.26%
[8]
  Activity: 11.64%
[9]
  viability at 8 µM: 76.7%
[10]
  Activity: Non-Toxic
[11]
  Activity: Active
[12]
  viability at 4 µM: 75.1%
[13]
  Activity: Active
[14]
  Activity: Dose-dependent effect
[15]
  growth inhibition (GI): Dose-dependent effect
[16]
  IC50: 3.46 µM
[17]
  Activity: Dose-dependent effect
[18]
  growth inhibition (GI): Tde
[19]
  Activity: 11.04%
[20]
  Activity: Active
[21]
  growth inhibition (GI): Dose-dependent effect
[22]
  Activity: 15.38 - 17.66%
[23]
  inhibition: Dose-dependent effect
[24]
  inhibition in vivo at 80 mg/kg: 82.1%
[25]
  Activity: Dose-dependent effect
[26]
  Activity: inactive
[27]
  Activity: 7.04%
[28]
  Activity: 1.71%
[29]
  Activity: 15.45%
[30]
  viability at 4 µM: 75.4%
[31]
  Activity: 19.42%
[32]
  Activity: 16%
[33]
  IC50: 2.56 µM
[34]
  Activity: inactive

Reference: ChEMBL document CHEMBL4364251, “Design, synthesis and biological evaluation of new quinoline derivatives as potential antitumor agents” (Eur J Med Chem, 2019)
